Among the test systems are 786-0; A549; CAKI-1; CCRF-CEM; IGROV-1; K562; KM12; LOX IMVI; MDA-MB-435; MDA-N; MOLT-4; NCI-H522; OVCAR-3; RPMI-8226; SF-268; SK-MEL-5; SW-620; UACC-62; UO-31.
What all share (assay): inhibition of tumour cell growth, NCI panel, 48 h

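Cells were grown in 96-well plates and exposed to each compound for 48 hours at five concentrations; endpoints were interpolated linearly between bracketing concentrations, or set to the highest concentration if not reached. The concentration for 50% growth inhibition is given as GI50.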 Active and inactive are the calls of the source. Rule as the data show it: active = GI50 up to about 1.1 µM and inactive = higher. Bounds are passed on as bounds.

On to `CC(C)(C)c1ccc(NS(=O)(=O)c2ccc(N)cc2)cc1`, for which the GI50 with 786-0 was 23 µM (inactive); with A549 it was 27.1 µM (inactive); in the assay with CAKI-1, 38.3 µM (inactive); in the assay on CCRF-CEM it was 16.3 µM (inactive); in the assay on IGROV-1 it was 18.8 µM (inactive); in the assay with K562 it was 17.8 µM (inactive). Moreover, the GI50 with KM12 is 36.6 µM (inactive); in the assay on LOX IMVI, 17.6 µM (inactive); in the assay on MDA-MB-435 it was 29.9 µM (inactive); in the assay with MDA-N, 23.6 µM (inactive); in the assay on MOLT-4, 14.5 µM (inactive); with NCI-H522, 17 µM (inactive). The GI50 with OVCAR-3 was 2.76 µM (inactive); in the assay on RPMI-8226 it was 11.6 µM (inactive); in the assay with SF-268, 26.9 µM (inactive); in the assay with SK-MEL-5 it was 17.9 µM (inactive); in the assay with SW-620 it was 26.9 µM (inactive); in the assay on UACC-62, 15.7 µM (inactive). In the assay with UO-31, the GI50 is 24.9 µM (inactive).
Regarding `O=C1OC(=O)C(=C\c2ccc3c(c2)OCO3)/C1=C/c1ccc2c(c1)OCO2`, the GI50 is > 100 µM (inactive) with 786-0; 37.9 µM (inactive) in the assay on A549; > 100 µM (inactive) in the assay on CAKI-1; 25.9 µM (inactive) in the assay on CCRF-CEM; > 100 µM (inactive) in the assay on IGROV-1; > 79.8 µM (inactive) with K562. Also, the GI50 in the assay with KM12 was > 100 µM (inactive); with LOX IMVI it was > 100 µM (inactive); in the assay on MDA-MB-435 it was > 100 µM (inactive); in the assay with MDA-N, > 100 µM (inactive); in the assay with MOLT-4 it was 37.8 µM (inactive); in the assay on NCI-H522, 36.1 µM (inactive). Besides, the GI50 was > 100 µM (inactive) in the assay with OVCAR-3; > 55.6 µM (inactive) in the assay with RPMI-8226; > 100 µM (inactive) in the assay on SF-268; > 100 µM (inactive) in the assay with SK-MEL-5; > 100 µM (inactive) in the assay on SW-620; > 72.1 µM (inactive) in the assay with UACC-62. Moreover, the GI50 in the assay with UO-31 was > 100 µM (inactive).
As for `CN1CC2=C(N=C(S)NC2c2ccccc2)/C(=C/c2ccccc2)C1` (stereo not given), the GI50 with 786-0 was > 100 µM (inactive); in the assay on A549, 30.3 µM (inactive); with CAKI-1, > 100 µM (inactive); in the assay on CCRF-CEM, 31.1 µM (inactive); with IGROV-1 it was 24.5 µM (inactive); in the assay on K562, 33 µM (inactive). Moreover, the GI50 in the assay on KM12 was 25.6 µM (inactive); in the assay on LOX IMVI, 29.7 µM (inactive); in the assay on MDA-MB-435 it was 46.8 µM (inactive); with MDA-N, 35.7 µM (inactive); in the assay on MOLT-4, 13 µM (inactive); in the assay with NCI-H522, 43 µM (inactive). Besides, the GI50 in the assay with OVCAR-3 is 99.8 µM (inactive); in the assay with RPMI-8226, 46.6 µM (inactive); in the assay on SF-268, > 100 µM (inactive); in the assay with SK-MEL-5, 27.7 µM (inactive); in the assay on SW-620 it was 71.1 µM (inactive); with UACC-62 it was 28.5 µM (inactive). Moreover, the GI50 in the assay on UO-31 is 60.5 µM (inactive).
Turning to `O=C(Nn1cc(F)c(=O)[nH]c1=O)C12CC3CC(CC(C3)C1)C2`, the GI50 in the assay with 786-0 was 10.7 µM (inactive); with A549 it was 6.27 µM (inactive); in the assay with CAKI-1 it was 4.6 µM (inactive); with CCRF-CEM it was 13 µM (inactive); with IGROV-1 it was 6.61 µM (inactive); with K562, 14.6 µM (inactive). Besides, the GI50 is 6.27 µM (inactive) in the assay on KM12; 7.8 µM (inactive) in the assay on LOX IMVI; 10 µM (inactive) with MDA-MB-435; 8.97 µM (inactive) with MDA-N; 16 µM (inactive) in the assay on MOLT-4; 16.6 µM (inactive) in the assay on NCI-H522. Further, the GI50 with OVCAR-3 was 10.4 µM (inactive); in the assay with RPMI-8226, 6.93 µM (inactive); in the assay on SF-268 it was 29.2 µM (inactive); in the assay on SK-MEL-5, 3.2 µM (inactive); in the assay on SW-620 it was 15.5 µM (inactive); in the assay with UACC-62, 7.59 µM (inactive). For the same molecule, the GI50 in the assay with UO-31 was 8.2 µM (inactive).
On to `CC(=O)OCCCOCn1c(Cc2ccccc2)c(C)c(=O)[nH]c1=O`, for which the GI50 in the assay with 786-0, in the assay on A549, in the assay on CAKI-1, with CCRF-CEM, with IGROV-1 and in the assay with K562 was > 100 µM (inactive) throughout. The GI50 in the assay on KM12, in the assay with LOX IMVI, in the assay on MDA-MB-435, in the assay on MDA-N, in the assay with MOLT-4 and in the assay on NCI-H522 was > 100 µM (inactive) throughout. The GI50 in the assay on OVCAR-3, in the assay with RPMI-8226, with SF-268, in the assay on SK-MEL-5, in the assay on SW-620 and in the assay with UACC-62 was > 100 µM (inactive) throughout. Also, the GI50 in the assay with UO-31 is > 100 µM (inactive).
`COP(=N[Si](C)(C)C)(OC)OC`: the GI50 in the assay with 786-0, with A549, in the assay with CAKI-1, with CCRF-CEM, in the assay with IGROV-1 and with K562 was > 100 µM (inactive) throughout. The GI50 in the assay on KM12, in the assay on LOX IMVI, with MDA-MB-435, with MDA-N, in the assay with MOLT-4 and in the assay on NCI-H522 was > 100 µM (inactive) throughout. For the same molecule, the GI50 in the assay with OVCAR-3, in the assay with RPMI-8226, in the assay with SF-268, in the assay with SK-MEL-5, in the assay on SW-620 and in the assay with UACC-62 was > 100 µM (inactive) throughout. Further, the GI50 in the assay on UO-31 was > 100 µM (inactive).
With `CN(C)CC1CCC/C(=C\c2ccc(Cl)cc2)C1=O` (stereo not given), the GI50 is 1.68 µM (inactive) in the assay on 786-0; 16.9 µM (inactive) in the assay with A549; 1.93 µM (inactive) in the assay on CAKI-1; 0.713 µM (active) in the assay with CCRF-CEM; 3.21 µM (inactive) in the assay with IGROV-1; 1 µM (active) in the assay with K562. For the same molecule, the GI50 with KM12 is 1.69 µM (inactive); in the assay on LOX IMVI it was 1.63 µM (inactive); in the assay on MDA-MB-435, 3.83 µM (inactive); in the assay on MDA-N it was 1.94 µM (inactive); with MOLT-4, 0.9 µM (active); in the assay with NCI-H522, 1.75 µM (inactive). For the same molecule, the GI50 in the assay with OVCAR-3 is 3.21 µM (inactive); in the assay on RPMI-8226, 0.254 µM (active); in the assay on SF-268, 5.2 µM (inactive); in the assay on SK-MEL-5, 4 µM (inactive); in the assay on SW-620, 1.93 µM (inactive); in the assay on UACC-62, 2.08 µM (inactive). For the same molecule, in the assay with UO-31, the GI50 was 2.25 µM (inactive).
Consider `CCOC(=O)[C@@H]1ON2OC(OC3CCCC3(c3ccccc3)c3ccccc3)C(OC(C)=O)[C@H]3OC(=O)[C@@H]1C32` (stereo not given in full), for which the GI50 in the assay with 786-0 was 92.3 µM (inactive); with A549 it was 47.2 µM (inactive); in the assay on CAKI-1, > 100 µM (inactive); in the assay with CCRF-CEM, 29.2 µM (inactive); with IGROV-1 it was > 100 µM (inactive); in the assay with K562, 97.9 µM (inactive). The GI50 was > 100 µM (inactive) in the assay on KM12; 22.1 µM (inactive) in the assay on LOX IMVI; 51.1 µM (inactive) in the assay on MDA-MB-435; > 100 µM (inactive) with MDA-N; 43.3 µM (inactive) with MOLT-4; 21.2 µM (inactive) with NCI-H522. The GI50 in the assay on OVCAR-3 was 30.5 µM (inactive); in the assay with RPMI-8226, > 100 µM (inactive); in the assay on SF-268 it was > 100 µM (inactive); in the assay with SK-MEL-5, 42.9 µM (inactive); in the assay with SW-620, > 100 µM (inactive); in the assay on UACC-62, > 100 µM (inactive). Further, in the assay on UO-31, the GI50 was 36.4 µM (inactive).
`CC1=NN(c2nc(N)nc(/C(C#N)=C\c3ccc([N+](=O)[O-])s3)n2)C(C)(C)C1`: the GI50 was 0.16 µM (active) in the assay with 786-0; 0.887 µM (active) with A549; 1.16 µM (inactive) in the assay with CAKI-1; 0.0175 µM (active) with CCRF-CEM; 0.284 µM (active) in the assay with IGROV-1; < 0.0178 µM (active) with K562. Further, the GI50 with KM12 was 0.316 µM (active); in the assay with LOX IMVI it was 0.157 µM (active); in the assay on MDA-MB-435, 0.233 µM (active); in the assay on MDA-N, 0.34 µM (active); in the assay with MOLT-4, 0.138 µM (active); in the assay on NCI-H522, 0.101 µM (active). In addition, the GI50 with OVCAR-3 is 0.124 µM (active); in the assay with RPMI-8226, 0.0218 µM (active); in the assay on SF-268 it was 0.408 µM (active); with SK-MEL-5 it was 0.625 µM (active); in the assay with SW-620 it was 0.0736 µM (active); with UACC-62 it was 0.861 µM (active). In addition, the GI50 with UO-31 is 0.167 µM (active).
As for `O=S(=O)(O)c1ccc2c(/N=N\c3cccc4ccccc34)c(O)c(S(=O)(=O)O)cc2c1`, the GI50 in the assay with 786-0, in the assay on A549, in the assay with CAKI-1, in the assay on CCRF-CEM, with IGROV-1 and with K562 was > 100 µM (inactive) in each case. In addition, the GI50 with KM12, in the assay on LOX IMVI, in the assay on MDA-MB-435, in the assay on MDA-N, with MOLT-4 and in the assay on NCI-H522 was > 100 µM (inactive) throughout. The GI50 with OVCAR-3, with RPMI-8226, with SF-268, in the assay with SK-MEL-5, in the assay with SW-620 and in the assay on UACC-62 was > 100 µM (inactive) each time. Moreover, the GI50 in the assay with UO-31 was > 100 µM (inactive).

The values are drawn from ChEMBL document CHEMBL1201862, “PubChem BioAssay data set” (2004).
